For orientation: inhibition means the percentage by which the read-out fell short of the control.

Results on 13 molecules are retold here after ChEMBL document CHEMBL3882737, “Fused heterocyclic compounds as ion channel modulators” (2013).

For data set [1], the system named is Oryctolagus cuniculus. The experiment in a line: Anti-ischemic activity in anesthetized New Zealand rabbit heart assessed as reduction in ischemia-induced ST segment elevation by measuring MAPD90_ATX levels at 1 uM plasma concentration at 0.1 to 0.4 mg/kg, iv bolus dose dosed 30 mins before ischemia followed by reperfusion. Type of data set: functional.
The test system of data set [2] is Oryctolagus cuniculus. The experiment in a line: Effect on blood pressure in anesthetized New Zealand rabbit ischemia-induced ST segment elevation model at 0.1 to 0.4 mg/kg, iv bolus dose dosed 30 mins before ischemia followed by reperfusion. Particulars: in vivo, 0.5 h. Type of data set: ADME, organism-based.
In data set [3] the test system is Oryctolagus cuniculus. As to the kind of experiment: Anti-ischemic activity in anesthetized New Zealand rabbit heart assessed as reduction in ischemia-induced myocardial electrical dysfunction at 0.1 to 0.4 mg/kg, iv bolus dose dosed 30 mins before ischemia followed by reperfusion. Type of data set: functional, organism-based.
Data set [4] concerns Oryctolagus cuniculus. The experiment in a line: Effect on heart rate in anesthetized New Zealand rabbit ischemia-induced ST segment elevation model at 0.1 to 0.4 mg/kg, iv bolus dose dosed 30 mins before ischemia followed by reperfusion. Type of data set: ADME, organism-based. The note with it: in vivo, 0.5 h.
Data set [5] has as its system Oryctolagus cuniculus. As to the kind of experiment: Effect on ECG intervals in anesthetized New Zealand rabbit ischemia-induced ST segment elevation model at 0.1 to 0.4 mg/kg, iv bolus dose dosed 30 mins before ischemia followed by reperfusion. Type of data set: ADME, organism-based. Particulars: in vivo, 0.5 h.
Data set [6] concerns Oryctolagus cuniculus. As to the kind of experiment: Anti-ischemic activity in anesthetized New Zealand rabbit heart assessed as reduction in ischemia-induced ST segment elevation at 0.1 to 0.4 mg/kg, iv bolus dose dosed 30 mins before ischemia followed by reperfusion. Format: functional, organism-based.
The target of data set [7] is NaV1.5 (peak sodium current) (Homo sapiens, UniProt Q14524). As to the kind of experiment: Inhibition of human NaV1.5 expressed in HEK293 cells assessed as use dependent blocking of cell membrane depolarization-induced peak sodium currents at 1 uM at 0 mV and 3 Hz stimulation at holding potential of -100 mV by whole cell patch clamp Qpatch method. Format: cell-based. The note with it: HEK293 cells that express human NaV1.5. (In patch-clamp work, channel activity is measured electrically.)
Sequence of NaV1.5 (peak sodium current) (Q14524 whole entry): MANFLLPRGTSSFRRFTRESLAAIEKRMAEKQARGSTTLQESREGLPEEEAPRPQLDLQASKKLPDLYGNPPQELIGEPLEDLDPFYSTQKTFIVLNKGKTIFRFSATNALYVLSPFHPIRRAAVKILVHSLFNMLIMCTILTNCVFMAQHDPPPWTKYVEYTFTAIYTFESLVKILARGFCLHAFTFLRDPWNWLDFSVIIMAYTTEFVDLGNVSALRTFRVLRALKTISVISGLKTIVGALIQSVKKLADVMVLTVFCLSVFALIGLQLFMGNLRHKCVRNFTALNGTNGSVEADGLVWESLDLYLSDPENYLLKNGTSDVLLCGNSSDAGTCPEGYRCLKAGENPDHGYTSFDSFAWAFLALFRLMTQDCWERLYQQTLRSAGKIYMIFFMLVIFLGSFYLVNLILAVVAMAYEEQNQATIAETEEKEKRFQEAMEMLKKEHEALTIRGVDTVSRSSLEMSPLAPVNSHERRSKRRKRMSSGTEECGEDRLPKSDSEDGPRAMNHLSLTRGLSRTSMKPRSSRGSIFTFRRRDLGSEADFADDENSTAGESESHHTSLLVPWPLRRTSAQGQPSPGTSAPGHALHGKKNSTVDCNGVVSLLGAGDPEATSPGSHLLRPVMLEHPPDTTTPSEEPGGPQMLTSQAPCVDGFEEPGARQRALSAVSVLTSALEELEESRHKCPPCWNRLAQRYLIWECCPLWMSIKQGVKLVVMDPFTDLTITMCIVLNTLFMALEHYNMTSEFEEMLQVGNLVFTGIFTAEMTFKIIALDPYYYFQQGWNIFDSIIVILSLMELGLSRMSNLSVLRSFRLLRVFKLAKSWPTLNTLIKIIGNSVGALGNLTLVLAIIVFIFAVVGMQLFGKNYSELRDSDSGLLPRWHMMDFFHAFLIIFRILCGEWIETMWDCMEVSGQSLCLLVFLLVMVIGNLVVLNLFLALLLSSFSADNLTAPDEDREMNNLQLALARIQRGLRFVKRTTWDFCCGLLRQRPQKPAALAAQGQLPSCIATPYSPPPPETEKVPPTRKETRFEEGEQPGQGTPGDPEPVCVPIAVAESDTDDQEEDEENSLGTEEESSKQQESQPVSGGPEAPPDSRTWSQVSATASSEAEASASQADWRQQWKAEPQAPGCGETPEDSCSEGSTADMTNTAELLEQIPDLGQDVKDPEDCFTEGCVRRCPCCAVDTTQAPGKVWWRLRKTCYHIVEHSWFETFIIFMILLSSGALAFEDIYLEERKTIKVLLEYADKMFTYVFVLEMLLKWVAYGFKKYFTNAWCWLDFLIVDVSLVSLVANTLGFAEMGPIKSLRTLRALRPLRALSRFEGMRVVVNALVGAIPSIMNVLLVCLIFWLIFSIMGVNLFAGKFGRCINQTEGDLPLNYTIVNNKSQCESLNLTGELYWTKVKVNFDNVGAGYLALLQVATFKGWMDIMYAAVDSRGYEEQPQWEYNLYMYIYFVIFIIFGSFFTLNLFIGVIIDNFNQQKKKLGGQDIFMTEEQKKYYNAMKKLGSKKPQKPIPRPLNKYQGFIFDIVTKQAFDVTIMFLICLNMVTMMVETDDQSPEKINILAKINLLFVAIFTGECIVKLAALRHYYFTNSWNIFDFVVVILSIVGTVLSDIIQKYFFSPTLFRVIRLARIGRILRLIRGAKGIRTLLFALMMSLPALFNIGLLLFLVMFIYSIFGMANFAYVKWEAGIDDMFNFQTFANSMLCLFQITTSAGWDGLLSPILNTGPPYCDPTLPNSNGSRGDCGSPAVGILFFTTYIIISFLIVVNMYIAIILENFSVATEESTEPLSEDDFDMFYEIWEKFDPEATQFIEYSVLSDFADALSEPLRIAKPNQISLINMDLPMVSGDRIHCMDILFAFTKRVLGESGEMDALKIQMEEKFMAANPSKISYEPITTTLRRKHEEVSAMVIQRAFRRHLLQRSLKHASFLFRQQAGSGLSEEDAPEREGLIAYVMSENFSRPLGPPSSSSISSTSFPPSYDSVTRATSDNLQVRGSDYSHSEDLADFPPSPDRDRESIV

The target of data set [8] is Sodium channel protein type 5 subunit alpha (Homo sapiens, UniProt Q14524). As to the kind of experiment: Inhibition of human NaV1.5 expressed in HEK293 cells assessed as blocking of tefluthrin-induced late sodium currents at 1 uM using -20 mV voltage steps at holding potential of -120 mV by whole cell patch clamp Qpatch method. Type of data set: cell-based.
Sequence of Sodium channel protein type 5 subunit alpha (Q14524 whole entry): as above

For the molecule `O=C1c2cc(-c3ccc(OC(F)(F)F)cc3)ccc2OCCN1Cc1ccc2ccccc2n1`, the “inhibition (INH)” value in the data set on Oryctolagus cuniculus [1] was -10%.
As for `O=C1c2cc(C#Cc3ccc(OC(F)(F)F)cc3)ccc2OCCN1Cc1ncccn1`, the “inhibition (INH)” value with Oryctolagus cuniculus [1] was -25%.
Consider `O=C1c2cc(-c3ccc(C(F)(F)F)cc3)ccc2OCCN1Cc1ncccn1`, for which, in the data set with Oryctolagus cuniculus [1], the “inhibition (INH)” value was -62%. Besides, the Activity entry in the data set on Oryctolagus cuniculus [2], with Oryctolagus cuniculus [4] and in the data set with Oryctolagus cuniculus [5] was “Non-Toxic” throughout. Moreover, the inhibition result with Oryctolagus cuniculus [3] and in the data set with Oryctolagus cuniculus [6] was “Dose-dependent effect” each time.
As to `O=C(c1ncccn1)N1CCOc2ccc(-c3ccc(OC(F)(F)F)cc3)cc2C1`, in the data set with Oryctolagus cuniculus [1], the “inhibition (INH)” value is on record as -47%.
Take `O=C1c2cc(-c3ccc(C(F)(F)F)cc3F)ccc2OCCN1Cc1ncccn1`: the inhibition at 1 µM in data set [7] lay in the range of 10 to 11%.
For `O=C1c2cc(-c3ccc(OC(F)(F)F)cc3)ccc2OCCN1Cn1cc(Cl)cn1`, the “inhibition (INH)” value with Oryctolagus cuniculus [1] was -23%.
Consider `CC(C)(C)c1ccc(-c2ccc3c(c2)C(=O)N(Cc2ncccn2)CCO3)cc1`, for which the “inhibition (INH)” value with Oryctolagus cuniculus [1] is -50%.
Regarding `O=C1c2cc(-c3ccc(OC(F)(F)F)cc3)ccc2OCCN1Cc1ncccn1` [ELECLAZINE], in the data set on Oryctolagus cuniculus [1], the “inhibition (INH)” value is listed as -56%. Moreover, the Activity result with Oryctolagus cuniculus [2], in the data set with Oryctolagus cuniculus [4] and in the data set with Oryctolagus cuniculus [5] was “Non-Toxic” throughout. The inhibition entry with Oryctolagus cuniculus [3] and in the data set with Oryctolagus cuniculus [6] was “Dose-dependent effect” each time.
For the molecule `O=C1c2cc(C#Cc3ccc(C(F)(F)F)cc3)ccc2OCCN1Cc1ncccn1`, the “inhibition (INH)” value in the data set with Oryctolagus cuniculus [1] is on record as -49%.
The same measure, in the same setting: for `O=C1c2cc(-c3ccc(Cl)cc3)ccc2OCCN1Cc1ncccn1` the value was -69%.
Same read-out and setting: for `COc1cc(OC)nc(CN2CCOc3ccc(-c4ccc(OC(F)(F)F)cc4)cc3C2=O)n1` the value was -27%; for `Cc1ccnc(CN2CCOc3cnc(-c4ccc(OC(F)(F)F)cc4)cc3C2=O)n1`, -34%.
Consider `O=C1c2cc(-c3ccc(C(F)(F)F)cc3)ccc2OCCN1Cc1cn2ccccc2n1`, for which the “inhibition (INH)” value with Oryctolagus cuniculus [1] is -49%. Also, in data set [8], the inhibition at 1 µM fell in the range of 32 to 33%.
